Holding throughout (test): NCI anticancer screen, dose series, 48 h
Experiment [1] deals with 786-0 renal.
The test system of experiment [2] is U251 CNS.
Experiment [3] has as its system NCI-H23 lung.
In experiment [4] the test system is NCI-H522 lung.
The subject of experiment [5] is CCRF-CEM leukemia.
Experiment [6] concerns RXF 393 renal.
Experiment [7] concerns IGROV1 ovarian.

Molecules are shown by their SMILES.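 Results reflect a 48-hour exposure of cells in 96-well plates to compound at five concentrations. At the GI50, growth is halved. TGI is the concentration that stops growth completely.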 A value given as a limit tells only on which side of the number the result lay.

Take `OCC(O)C(O)C(O)/C=N/Nc1nc2ccccc2nc1-c1ccccc1` (stereo not given): the GI50 in experiment [1] is > 100 µM; in experiment [2], 77.9 µM; in experiment [3] it was > 100 µM; in experiment [4], 72.7 µM; in experiment [5], 32.2 µM; in experiment [6] it was > 100 µM. Moreover, the GI50 in experiment [7] was 57.4 µM. The TGI in experiment [1], in experiment [2], in experiment [3], in experiment [4], in experiment [5] and in experiment [6] was > 100 µM throughout. Besides, the TGI in experiment [7] is > 100 µM.

Regarding `O=C1CS/C(=N\S(=O)(=O)c2ccc(N3N=C4c5ccccc5CC4C3c3ccc(Cl)cc3)cc2)N1c1ccccc1` (stereo not given), the GI50 in experiment [1] is 46.6 µM; in experiment [2] it was 27.8 µM; in experiment [4], 36.7 µM; in experiment [5] it was 13.7 µM; in experiment [6], 29.4 µM; in experiment [7], 37.8 µM. For the same compound, the TGI in experiment [1] was > 100 µM; in experiment [2] it was 64.8 µM; in experiment [4] it was > 100 µM; in experiment [5] it was 58.3 µM; in experiment [6], 81.3 µM; in experiment [7], > 100 µM.

Regarding `Cc1ccc(Sc2sc(-c3ccccc3)nc2[P+](c2ccccc2)(c2ccccc2)c2ccccc2)cc1`, the GI50 in experiment [1] was 0.381 µM; in experiment [2] it was 0.214 µM; in experiment [3] it was 0.27 µM; in experiment [4], 0.306 µM; in experiment [5], 0.373 µM; in experiment [6] it was 0.331 µM. Also, the TGI in experiment [1] was 1.45 µM; in experiment [2], 1.4 µM; in experiment [3] it was 0.811 µM; in experiment [4], 1.25 µM; in experiment [5] it was 2 µM; in experiment [6] it was 1.38 µM.

As to `Nc1nc(-c2cccc([N+](=O)[O-])c2)cc(-c2cc(-c3cccc([N+](=O)[O-])c3)nc(N)n2)n1`, the TGI in experiment [1], in experiment [2], in experiment [3], in experiment [4], in experiment [6] and in experiment [7] was > 100 µM each time.

Consider `N#Cc1ccc2c(c1)C(=O)c1c-2n(CCCN)c(=O)c2cc([N+](=O)[O-])ccc12`, for which the GI50 in experiment [1] was 0.61 µM; in experiment [2], 0.0718 µM; in experiment [3], 0.353 µM; in experiment [5] it was 0.038 µM; in experiment [6], 0.906 µM; in experiment [7] it was 0.0712 µM. Further, the TGI in experiment [1] came to 2.16 µM; in experiment [2], 0.497 µM; in experiment [3] it was 2.39 µM; in experiment [5], 0.442 µM; in experiment [6] it was 2.22 µM; in experiment [7], 1.24 µM.

For the compound `Cc1cc2cn3c4cccnc4[nH]c(=O)c3c2cc1C`, the GI50 in experiment [1] is 1.87 µM; in experiment [3] it was 1.37 µM; in experiment [6], 1.46 µM. Besides, the TGI in experiment [1] was found to be 3.33 µM; in experiment [3], 2.74 µM; in experiment [6] it was 2.88 µM.

As to `O=[N+]([O-])c1ccc2nc3ccccc3cc2c1`, the TGI is 14 µM in experiment [1]; 10.6 µM in experiment [2]; 6.22 µM in experiment [3]; 9.79 µM in experiment [4]; > 100 µM in experiment [6]; 6.8 µM in experiment [7].

For `CCOC(=O)CSc1[nH]c(NC(=S)Nc2ccccc2)c(C(N)=O)c1C(N)=O`, the TGI in experiment [1], in experiment [3], in experiment [5], in experiment [6] and in experiment [7] was > 10 µM in each case.

Turning to `Cc1nc(C(N)=S)sc1C(=O)C/C(=N/N)C(=O)Nc1ccc(Cl)cc1`, the TGI in experiment [1], in experiment [2], in experiment [3], in experiment [4], in experiment [6] and in experiment [7] was > 100 µM in each case.

Regarding `NC(CC1=CCC=CC1)C(=O)O` (stereo not given), the TGI in experiment [1], in experiment [2], in experiment [3], in experiment [5], in experiment [6] and in experiment [7] was > 100 µM throughout.

For `Clc1ccc(Nc2ccnc(NCCCNc3ccnc4cc(Cl)ccc34)n2)cc1`, the GI50 is 1.73 µM in experiment [1], 1.48 µM in experiment [2], 1.79 µM in experiment [3] and 1.95 µM in experiment [4]. Also, the TGI in experiment [1] worked out at 3.33 µM; in experiment [2], 2.91 µM; in experiment [3], 3.53 µM; in experiment [4], 3.68 µM.

For `CC(=O)OC1Oc2ccccc2-c2oc(=O)c(-c3cc4ccccc4oc3=O)cc21` (stereo not given), the GI50 in experiment [1] was 16.6 µM; in experiment [2], 14.7 µM; in experiment [3] it was 24 µM; in experiment [4], 18.5 µM; in experiment [5], 23.2 µM; in experiment [7] it was 20.5 µM. Further, the TGI came to 31.3 µM in experiment [1]; 28.3 µM in experiment [2]; 52.4 µM in experiment [3]; 36.3 µM in experiment [4]; 54.2 µM in experiment [5]; 48.6 µM in experiment [7].
